Measured values from patent publication EP0939649B1, “ADDITIVE, IN PARTICULAR IN THE FORM OF AN EMULSION CONTAINING A TRIVALENT METAL CATION AND VACCINE COMPOSITION CONTAINING SAME” (priority 1996, dated 1998).

Key:
[1] = test system: sérum albumine bovine (BSA); assay: Immunostimulant effect of adjuvants: IgG1/IgG2a antibody response in mice vaccinated subcutaneously with BSA antigen; type: in vivo, souris; settings: 21 days after vaccination, 100 µl s.c. per mouse, 10 µg BSA, salts at optimal concentration; for réponse lgG2a: represents cellular response; for réponse lgG1: represents humoral response
Method: Ces compositions thérapeutiques comprennent, à titre d'antigène de la sérum albumine bovine (BSA), Grade V, Sigma.
Ces compositions thérapeutiques (dose/souris) d'un volume de 100 µl mises en oeuvre comprenaient 10µg d'antigène et ont été injectées par voie sous-cutanée.
Les résultats ont été obtenus 21 jours après vaccination:
Les réponses IgG 1 sont représentatives de la réponse humorale,
Les réponses IgG 2a sont représentatives de la réponse cellulaire.

[2] = Local reactions (lesions and granulomas) at the injection site after subcutaneous injection in mice; type: in vivo, souris; settings: 8 days after s.c. injection, 1000 µl, 10 µg BSA
Method: On a injecté à différents lots comprenant chacun 5 souris, une composition thérapeutique d'un volume de 1000 µl, comprenant 10 µg d'antigène (BSA), par voie sous-cutanée. On a évalué les réactions locales (lésions et granulomes) 8 jours après injection.

| Compound | réponse lgG2a [1] | réponse lgG1 [1] | réactions locales (lésions et granulomes) ([2]; souris 1) | réactions locales (lésions et granulomes) ([2]; souris 2) | réactions locales (lésions et granulomes) ([2]; souris 3) | réactions locales (lésions et granulomes) ([2]; souris 5) |
| --- | --- | --- | --- | --- | --- | --- |
| [OH][Al]([OH])[OH] [AlOH, hydroxyde d'Aluminium] | <1000 | 8000 |  |  |  |  |
| CC(=O)[O-].[Al+3].[OH-].[OH-] [C2H5AlO4 (forme soluble), acétate d'Aluminium soluble (C2H5AlO4)] | 8000 | 64000 | 0 | 0 | 0 | 0 |
| CC(=O)[O-].CC(=O)[O-].[Al+3].[OH-] [C4H7AlO5 (forme insoluble), forme insoluble d'acétate d'Aluminium (C4H7AlO5)] | <1000 | <1000 |  |  |  |  |
| phosphate d'Aluminium [AlPO4] | <1000 | <1000 |  |  |  |  |
| salicylate d'Aluminium | 6000 | 48000 |  |  |  |  |
